According to patent US10597388B2, “Pyridazinone herbicides” (FMC CORPORATION, priority 2014, dated 2020):

Columns and labels:
Test in all cases: Test C greenhouse herbicide test, pre- and postemergence
Assay type in all cases: in vivo
[1] = test system: galium (catchweed bedstraw, Galium aparine); settings: Postemergence
Outline: (§1)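 Seeds sown in loam–sand blend treated preemergence; plants in peat-based medium sprayed postemergence at 2–18 cm (1- to 4-leaf stage); chemicals in non-phytotoxic solvent with surfactant. Greenhouse 13–15 d, then visual rating versus controls on 0–100 scale (0 no effect, 100 complete control).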

[2] = test system: corn (Zea mays); settings: for Plant response rating, Corn: Postemergence
Outline: as §1

[3] = test system: ragweed (common ragweed, Ambrosia elatior); settings: Postemergence
Outline: as §1

[4] = test system: blackgrass (Alopecurus myosuroides); settings: for Plant response rating, Blackgrass: Postemergence
Outline: as §1

[5] = test system: waterhemp (common waterhemp, Amaranthus rudis); settings: Postemergence
Outline: as §1

[6] = test system: johnsongrass (Sorghum halepense); settings: Postemergence
Outline: as §1

[7] = test system: ryegrass, Italian (Italian ryegrass, Lolium multiflorum); settings: Postemergence
Outline: as §1

[8] = test system: lambsquarters (Chenopodium album); settings: Postemergence
Outline: as §1

[9] = test system: crabgrass, large (large crabgrass, Digitaria sanguinalis); settings: for Plant response rating, Crabgrass, Large: Postemergence
Outline: as §1

[10] = test system: velvetleaf (Abutilon theophrasti); settings: Postemergence
Outline: as §1

[11] = test system: foxtail, giant (giant foxtail, Setaria faberii); settings: Postemergence
Outline: as §1

[12] = test system: oilseed rape (Brassica napus); settings: Postemergence
Outline: as §1

[13] = test system: nutsedge, yellow (yellow nutsedge, Cyperus esculentus); settings: Postemergence
Outline: as §1

[14] = test system: barnyardgrass (Echinochloa crus-galli); settings: for Plant response rating, Barnyardgrass: Postemergence
Outline: as §1

[15] = test system: pigweed (Amaranthus retroflexus); settings: Postemergence
Outline: as §1

[16] = test system: morningglory (Ipomoea coccinea); settings: Postemergence
Outline: as §1

[17] = 31 g ai/ha, scale 0 to 100 (0 no effect, 100 complete control)
[18] = 125 g ai/ha, scale 0 to 100, 0 is no effect, 100 is complete control
[19] = 250 g ai/ha, scale 0 to 100, 0 no effect, 100 complete control, 13 to 15 d
[20] = postemergence, 62 g ai/ha, scale 0 to 100, 0 no effect, 100 complete control

Cc1nn(C)c(=O)c(-c2ccc(F)c3ccccc23)c1OC(=O)CC(F)(F)F [Compound 123]
Plant response rating, Galium [1, 17]: 95 | Plant response rating, Galium [1, 18]: 95 | Plant response rating, Galium [1, 19]: 95 | Plant response rating, Corn [2, 17]: 10 | Plant response rating, Corn [2, 18]: 20 | Plant response rating, Corn [2, 19]: 20 | Corn plant response rating [2, 20]: 15 | Plant response rating, Ragweed [3, 17]: 75 | Plant response rating, Ragweed [3, 18]: 95 | Plant response rating, Ragweed [3, 19]: 98 | Plant response rating, Blackgrass [4, 17]: 15 | Plant response rating, Blackgrass [4, 18]: 45 | Plant response rating, Blackgrass [4, 19]: 45 | Blackgrass plant response rating [4, 20]: 35 | Plant response rating, Waterhemp [5, 17]: 80 | Plant response rating, Waterhemp [5, 18]: 100 | Plant response rating, Waterhemp [5, 19]: 100 | Plant response rating, Johnsongrass [6, 17]: 5 | Plant response rating, Johnsongrass [6, 18]: 20 | Plant response rating, Johnsongrass [6, 19]: 25 | Plant response rating, Ryegrass, Italian [7, 17]: 90 | Plant response rating, Ryegrass, Italian [7, 18]: 90 | Plant response rating, Ryegrass, Italian [7, 19]: 95 | Plant response rating, Lambsquarters [8, 17]: 95 | Plant response rating, Lambsquarters [8, 18]: 100 | Plant response rating, Lambsquarters [8, 19]: 100 | Plant response rating, Crabgrass, Large [9, 17]: 10 | Plant response rating, Crabgrass, Large [9, 18]: 30 | Plant response rating, Crabgrass, Large [9, 19]: 75 | Crabgrass, Large plant response rating [9, 20]: 35 | Plant response rating, Velvetleaf [10, 17]: 65 | Plant response rating, Velvetleaf [10, 18]: 85 | Plant response rating, Velvetleaf [10, 19]: 95 | Plant response rating, Foxtail, Giant [11, 17]: 20 | Plant response rating, Foxtail, Giant [11, 18]: 35 | Plant response rating, Foxtail, Giant [11, 19]: 80 | Plant response rating, Oilseed Rape [12, 17]: 0 | Plant response rating, Oilseed Rape [12, 18]: 0 | Plant response rating, Oilseed Rape [12, 19]: 5 | Plant response rating, Nutsedge, Yellow [13, 17]: 55 | Plant response rating, Nutsedge, Yellow [13, 18]: 85 | Plant response rating, Nutsedge, Yellow [13, 19]: 90 | Plant response rating, Barnyardgrass [14, 17]: 20 | Plant response rating, Barnyardgrass [14, 18]: 40 | Plant response rating, Barnyardgrass [14, 19]: 70 | Barnyardgrass plant response rating [14, 20]: 25 | Plant response rating, Pigweed [15, 17]: 65 | Plant response rating, Pigweed [15, 18]: 80 | Plant response rating, Pigweed [15, 19]: 98 | Plant response rating, Morningglory [16, 17]: 95 | Plant response rating, Morningglory [16, 18]: 98 | Plant response rating, Morningglory [16, 19]: 100
